For orientation: DC50 means the concentration at which degradation of the target reaches its halfway point.

Ten molecules from US20230295197A1, “STAT5 and STAT6 Degraders and Uses Thereof” (REGENTS OF THE UNIVERSITY OF MICHICAN, priority 2022, published 2023) can be followed below.

One assay concerns STAT5. The assay is described as follows: Immunoblotting (Western blot) analysis of STAT5 degradation efficiency of degraders in treated cells. The assay is classed as cell-based. An outline of the steps: (§1)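 ~1e6 cells/pt; cpd at indicated conc and duration; RIPA + protease/phosphatase inhibitors; BCA; 20-40 μg/lane Tris-glycine SDS-PAGE; PVDF; primary Ab 1:1000 o/n 4 °C; IRDye secondaries 1 h rt; infrared scan and densitometry; GAPDH loading ctrl.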
A general note: Immunoblotting shows a protein as a band on a membrane.

The next assay has as its target T1, STAT6 (Homo sapiens, UniProt P42226).
T1 construct: endogenous in cells; host or cells: MOLM-16, KU-812, SKNO1, MB231, L1236
T1 sequence (P42226 1-847): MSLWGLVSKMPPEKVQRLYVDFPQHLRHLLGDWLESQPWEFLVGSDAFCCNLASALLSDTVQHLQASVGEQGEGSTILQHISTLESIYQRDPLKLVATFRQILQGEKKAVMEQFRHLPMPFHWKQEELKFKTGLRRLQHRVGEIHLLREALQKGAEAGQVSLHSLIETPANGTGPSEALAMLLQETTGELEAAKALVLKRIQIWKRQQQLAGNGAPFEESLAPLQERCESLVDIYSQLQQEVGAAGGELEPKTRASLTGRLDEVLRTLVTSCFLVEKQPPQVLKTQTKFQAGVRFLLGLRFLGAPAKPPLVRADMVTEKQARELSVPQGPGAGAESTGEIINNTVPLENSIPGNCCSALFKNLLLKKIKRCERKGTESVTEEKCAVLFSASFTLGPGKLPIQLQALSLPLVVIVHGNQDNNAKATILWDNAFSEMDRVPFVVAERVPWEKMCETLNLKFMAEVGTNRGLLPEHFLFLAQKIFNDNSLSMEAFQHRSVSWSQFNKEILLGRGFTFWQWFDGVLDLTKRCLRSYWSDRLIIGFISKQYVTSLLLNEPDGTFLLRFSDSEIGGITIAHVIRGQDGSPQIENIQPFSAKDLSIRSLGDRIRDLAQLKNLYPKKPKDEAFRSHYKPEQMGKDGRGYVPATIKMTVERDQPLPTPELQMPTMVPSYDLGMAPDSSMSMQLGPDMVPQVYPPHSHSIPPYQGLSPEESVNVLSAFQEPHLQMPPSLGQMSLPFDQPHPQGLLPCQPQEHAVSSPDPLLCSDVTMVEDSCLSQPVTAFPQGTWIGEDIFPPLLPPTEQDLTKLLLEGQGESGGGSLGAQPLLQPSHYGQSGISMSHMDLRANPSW
The assay is described as follows: Immunoblotting (Western blot) analysis of STAT6 degradation efficiency of degraders in treated cells. The assay is classed as cell-based. An outline of the steps: as §1

The mark [1] stands for this setting: MOLM-16 cells, numeric bound, read-out: DC50 S5 MOLM-16.
The mark [2] stands for this setting: MOLM-16 cells, class symbols, read-out: DC50 S6 MOLM-16.
Where [3] appears, read: MOLM-16 cells, class symbols, read-out: DC50 S5 MOLM-16.
The mark [4] stands for this setting: MOLM-16 cells, numeric bound, read-out: DC50 S6 MOLM-16.
[5] abbreviates: KU-812 cells, read-out: DC50 S5 KU-812.
[6] abbreviates: SKNO1 cells, read-out: DC50 S5 SKNO1.

Where two headings read alike, the source gives them in different places.

For `CC(C)(C)C(=O)OCOP(=O)(O)C(F)(F)c1ccc2sc(C(=O)N[C@H](C(=O)N3CCC[C@H]3C(=O)N(CCC(=O)NCCCC#Cc3cccc4c3CN(C3CCC(=O)NC3=O)C4=O)c3ccc(Br)cc3)C(C)(C)C)cc2c1` (stereo partly drawn) [Compound 653, ((((2-(((2S)-1-((2S)-2-((4-bromophenyl)(3-((5-(2-(2,6-dioxopiperidin-3-yl)-1-oxoisoindolin-4-yl)pent-4-yn-1-yl)amino)-3-oxopropyl)carbamoyl)pyrrolidin-1-yl)-3,3-dimethyl-1-oxobutan-2-yl)carbamoyl)benzo[b]thiophen-5-yl)difluoromethyl)(hydroxy)phosphoryl)oxy)methyl pivalate], the DC50 is above 300 nM in the assay with STAT5 (setting [1]) and below 100 nM on STAT6 (setting [2]).

Consider `CN(CCCC#Cc1cccc2c1CN(C1CCC(=O)NC1=O)C2=O)C(=O)CCN(C(=O)[C@@H]1CCCN1C(=O)[C@@H](NC(=O)c1cc2cc(C(F)(F)P(=O)(O)OCOC(=O)C(C)(C)C)ccc2s1)C(C)(C)C)c1ccc2scnc2c1` (stereo partly drawn) [Compound 676, ((((2-(((2S)-1-((2S)-2-(benzo[d]thiazol-5-yl(3-((5-(2-(2,6-dioxopiperidin-3-yl)-1-oxoisoindolin-4-yl)pent-4-yn-1-yl)(methyl)amino)-3-oxopropyl)carbamoyl)pyrrolidin-1-yl)-3,3-dimethyl-1-oxobutan-2-yl)carbamoyl)benzo[b]thiophen-5-yl)difluoromethyl)(hydroxy)phosphoryl)oxy)methyl pivalate], for which the DC50 in the assay with STAT5 (setting [3]) was below 100 nM; at STAT6 (setting [4]), above 300 nM.

Consider `CC(C)(C)[C@H](NC(=O)c1cc2cc(C(F)(F)P(=O)(O)O)ccc2s1)C(=O)N1C[C@@H](OCCCCCC#Cc2cccc3c2CN(C2CCC(=O)NC2=O)C3=O)C[C@H]1C(=O)N1CCO[C@H](c2ccccc2)C1` (stereo partly drawn) [Compound 593, ((2-(((2S)-1-((2S,4S)-4-((7-(2-(2,6-dioxopiperidin-3-yl)-1-oxoisoindolin-4-yl)hept-6-yn-1-yl)oxy)-2-((R)-2-phenylmorpholine-4-carbonyl)pyrrolidin-1-yl)-3,3-dimethyl-1-oxobutan-2-yl)carbamoyl)benzo[b]thiophen-5-yl)difluoromethyl)phosphonic acid], for which the DC50 was above 10000 nM with STAT5 (setting [3]) and below 100 nM at STAT6 (setting [2]).

On to `CC(C)(C)[C@H](NC(=O)c1cc2cc(C(F)(F)P(=O)(O)O)ccc2s1)C(=O)N1CCC[C@H]1C(=O)N(CCC(=O)NCCCCCCC#Cc1cccc2c1CN(C1CCC(=O)NC1=O)C2=O)c1ccc(Br)cc1` (stereo partly drawn) [Compound 404, ((2-(((2S)-1-((2S)-2-((4-bromophenyl)(3-((8-(2-(2,6-dioxopiperidin-3-yl)-1-oxoisoindolin-4-yl)oct-7-yn-1-yl)amino)-3-oxopropyl)carbamoyl)pyrrolidin-1-yl)-3,3-dimethyl-1-oxobutan-2-yl)carbamoyl)benzo[b]thiophen-5-yl)difluoromethyl)phosphonic acid], for which the half-maximal degradation concentration (DC50) with STAT5 (setting [5]) was 100 to 1000 nM; in the assay on STAT5 (setting [3]) it was 100 to 1000 nM; in the assay with STAT5 (setting [6]) it was 1000 to 10000 nM; at STAT6 (MB231 cells, read-out: DC50 S6 MB231), above 10000 nM; on STAT6 (setting [2]), above 10000 nM.

For `CC(C)(C)[C@H](NC(=O)c1cc2cc(C(F)(F)P(=O)(O)O)ccc2s1)C(=O)N1CCC[C@H]1C(=O)N(CCC(=O)NCCCC#Cc1cccc2c1CN(C1CCC(=O)NC1=O)C2=O)c1ccc(-c2nccs2)cc1` (stereo partly drawn) [Compound 655, ((2-(((2S)-1-((2S)-2-((3-((5-(2-(2,6-dioxopiperidin-3-yl)-1-oxoisoindolin-4-yl)pent-4-yn-1-yl)amino)-3-oxopropyl)(4-(thiazol-2-yl)phenyl)carbamoyl)pyrrolidin-1-yl)-3,3-dimethyl-1-oxobutan-2-yl)carbamoyl)benzo[b]thiophen-5-yl)difluoromethyl)phosphonic acid], the DC50 was 100 to 1000 nM in the assay on STAT5 (setting [5]), below 100 nM in the assay on STAT5 (setting [3]), 100 to 1000 nM in the assay on STAT5 (setting [6]) and above 300 nM on STAT6 (setting [4]).

Regarding `CN(CCCC#Cc1cccc2c1CN(C1CCC(=O)NC1=O)C2=O)C(=O)CCN(C(=O)[C@@H]1CCCN1C(=O)[C@@H](NC(=O)c1cc2cc(C(F)(F)P(=O)(O)OCOC(=O)C(C)(C)C)ccc2s1)C(C)(C)C)c1ccc2ccccc2c1` (stereo partly drawn) [Compound 673, ((((2-(((2S)-1-((2S)-2-((3-((5-(2-(2,6-dioxopiperidin-3-yl)-1-oxoisoindolin-4-yl)pent-4-yn-1-yl)(methyl)amino)-3-oxopropyl)(naphthalen-2-yl)carbamoyl)pyrrolidin-1-yl)-3,3-dimethyl-1-oxobutan-2-yl)carbamoyl)benzo[b]thiophen-5-yl)difluoromethyl)(hydroxy)phosphoryl)oxy)methyl pivalate], the values for the half-maximal degradation concentration (DC50) in the assay on STAT5 (setting [3]) and on STAT6 (setting [4]) were below 100 nM and above 300 nM, respectively.

Take `CC(C)(C)[C@H](NC(=O)c1cc2cc(C(F)(F)P(=O)(O)O)ccc2s1)C(=O)N1CCC[C@H]1C(=O)N1Cc2ccccc2CC1C(=O)NCCCC#Cc1cccc2c1CN(C1CCC(=O)NC1=O)C2=O` (stereo partly drawn) [Compound 657, ((2-(((2S)-1-((2S)-2-(3-((5-(2-(2,6-dioxopiperidin-3-yl)-1-oxoisoindolin-4-yl)pent-4-yn-1-yl)carbamoyl)-1,2,3,4-tetrahydroisoquinoline-2-carbonyl)pyrrolidin-1-yl)-3,3-dimethyl-1-oxobutan-2-yl)carbamoyl)benzo[b]thiophen-5-yl)difluoromethyl)phosphonic acid]: the DC50 in the assay on STAT5 (setting [1]) and on STAT6 (setting [4]) was above 300 nM in each case.

For the molecule `CC(C)(C)[C@H](NC(=O)c1cc2cc(C(F)(F)P(=O)(O)O)ccc2s1)C(=O)N1CCC[C@H]1C(=O)N(CCC(=O)NCCCC#Cc1cccc2c1CN(C1CCC(=O)NC1=O)C2=O)c1cccc2sccc12` (stereo partly drawn) [Compound 660, ((2-(((2S)-1-((2S)-2-(benzo[b]thiophen-4-yl(3-((5-(2-(2,6-dioxopiperidin-3-yl)-1-oxoisoindolin-4-yl)pent-4-yn-1-yl)amino)-3-oxopropyl)carbamoyl)pyrrolidin-1-yl)-3,3-dimethyl-1-oxobutan-2-yl)carbamoyl)benzo[b]thiophen-5-yl)difluoromethyl)phosphonic acid], the half-maximal degradation concentration (DC50) is above 300 nM in the assay with STAT5 (setting [1]), 1000 to 10000 nM in the assay on STAT5 (setting [6]) and above 300 nM on STAT6 (setting [4]).

Consider `CN(CCCC#Cc1cccc2c1CN(C1CCC(=O)NC1=O)C2=O)C(=O)CCN(C(=O)[C@@H]1CCCN1C(=O)[C@@H](NC(=O)c1cc2cc(C(F)(F)P(=O)(O)OCOC(=O)C(C)(C)C)ccc2s1)C(C)(C)C)c1ccc2ccoc2c1` (stereo partly drawn) [Compound 674, ((((2-(((2S)-1-((2S)-2-(benzofuran-6-yl(3-((5-(2-(2,6-dioxopiperidin-3-yl)-1-oxoisoindolin-4-yl)pent-4-yn-1-yl)(methyl)amino)-3-oxopropyl)carbamoyl)pyrrolidin-1-yl)-3,3-dimethyl-1-oxobutan-2-yl)carbamoyl)benzo[b]thiophen-5-yl)difluoromethyl)(hydroxy)phosphoryl)oxy)methyl pivalate], for which the values for the DC50 in the assay with STAT5 (setting [3]) and on STAT6 (setting [4]) were below 100 nM and above 300 nM, respectively.

Take `Cc1ncsc1-c1ccc([C@H](CC(=O)NCCOCCC(=O)N[C@@H]2C[C@@H](C(=O)Nc3ncc(-c4ccccc4)s3)N(C(=O)[C@@H](NC(=O)c3cc4cc(C(F)(F)P(=O)(O)O)ccc4s3)C(C)(C)C)C2)NC(=O)[C@@H]2C[C@@H](O)CN2C(=O)[C@@H](NC(=O)C2(F)CC2)C(C)(C)C)cc1` [Compound 580, (difluoro(2-(((S)-1-((2S,4R)-4-(3-(2-((S)-3-((2S,4R)-1-((S)-2-(1-fluorocyclopropane-1-carboxamido)-3,3-dimethylbutanoyl)-4-hydroxypyrrolidine-2-carboxamido)-3-(4-(4-methylthiazol-5-yl)phenyl)propanamido)ethoxy)propanamido)-2-((5-phenylthiazol-2-yl)carbamoyl)pyrrolidin-1-yl)-3,3-dimethyl-1-oxobutan-2-yl)carbamoyl)benzo[b]thiophen-5-yl)methyl)phosphonic acid]: the 50% degradation concentration (DC50) in the assay on STAT5 (setting [1]) and on STAT6 (setting [4]) was above 300 nM throughout.
